Key:
[1] = biological target: hu i-20S β5i-subunit (Homo sapiens, UniProt P20618+P28062); test: N,C-capped dipeptides IC50, Ac-ANW-AMC fluorescence assay; assay type: biochemical; conditions: for SI (selectivity index): Hu c-20S over Hu i-20S
Description: (§1) All inhibitory assays for N,C capped dipeptides were performed in a black solid-bottom 96-well plate. In general, compound plates were prepared starting from 10 mM in 3× series dilution to 15 μM. 1 μl of DMSO stock was transferred to a black 96-well plate and 100 μL of reaction mixture were added 15 μM N-acetyl-Alanine-Asparagine-Tryptophan-7-amino-4-methylcourmarin (Ac-ANW-AMC) or 25 μM succinyl-Leucine-Leucine-Valine-Tyrosine-7-amino-4-methyl-courmarin (succ-LLVY-AMC), 0.4 nM hu i-20S β5i-subunit or 0.2 nM hu c-20S β5c-subunit, 0.02% SDS, 1% BSA, 0.5 mM EDTA in 20 mM HEPES buffer at pH7.5. The plates were then spun at 1000 rpm for 1 minute, and the fluorescence units of each well were recorded at λex=360 nm, λem=460 nm for 2 hours. The slopes of the initial linear range of the time course were used to calculate the velocity, and relative activities were normalized to the velocities of the DMSO control.

[2] = biological target: hu c-20S β5c-subunit (Homo sapiens, UniProt P20618+P28074); test: N,C-capped dipeptides IC50, succ-LLVY-AMC fluorescence assay; assay type: biochemical
Description: as §1

[3] = test system: Karpas 1106p cells; test: Cytotoxicity (LD50) against Karpas lymphoma cells; assay type: cell-based, human; conditions: Table 3
Description: Table 3 lists the inhibition kinetic parameters, selectivity index, and calculated log Ps of selected dipeptides.

| SMILES | IC50 [1] | SI (selectivity index) [1] | IC50 [2] | LD50 [3] |
| --- | --- | --- | --- | --- |
| COC[C@H](NC(=O)CCc1ccccc1)C(=O)N[C@@H](C)C(=O)NCc1cccc2ccccc12 [DPLG-2048, (S)-3-methoxy-N—((S)-1-((naphthalen-1-ylmethyl)amino)-1-oxopropan-2-yl)-2-(3-phenylpropanamido)propanamide] | 34.9 µM | 1.7 | 59.8 µM | >100 µM |
| CC(=O)N[C@@H](Cc1ccc(F)cc1)C(=O)NCc1cccc2ccccc12 [DPLG-2109] | 57.1 µM | >2 | > 100 µM | >100 µM |
| C[C@H](NC(=O)[C@H](CC(=O)NOC(C)(C)C)NC(=O)Cc1ccccc1)C(=O)NCc1cccc2ccccc12 [DPLG-2142, (S)—N4-(tert-butoxy)-N1-((S)-1-((naphthalen-1-ylmethyl)amino)-1-oxopropan-2-yl)-2-(2-phenylacetamido)succinamide] | – | – | – | 9.1 µM |
| C[C@H](NC(=O)[C@H](CC(=O)NC(C)(C)C)NC(=O)C(=O)c1c[nH]c2ccccc12)C(=O)NCc1cccc2ccccc12 [DPLG-3053] | – | – | – | 0.22 µM |
| CC(C)(C)NC(=O)C[C@H](NC(=O)CCc1ccccc1)C(=O)N[C@@H](Cc1ccc(F)cc1)C(=O)NCc1ccc(-c2ccccc2)cc1 [DPLG-21049] | 0.133 µM | 5 | 0.7 µM | – |
| COC[C@H](NC(=O)[C@H](CC(=O)NOC(C)(C)C)NC(=O)CCc1ccccc1)C(=O)NCc1cccc2cccnc12 [DPLG-2220] | 0.07 µM | 19 | 1.35 µM | 6.27 µM |
| Cc1ccc(S(=O)(=O)N[C@@H](CCC(=O)NC(C)(C)C)C(=O)N[C@@H](C)C(=O)NOc2ccccc2)cc1 [DPLG-3017] | 0.099 µM | 6 | 0.6 µM | 6.33 µM |
| CC(C)[C@H](NC(=O)[C@H](CC(=O)NOC(C)(C)C)NC(=O)CCc1ccccc1)C(=O)NCc1cccc2ccccc12 [DPLG-2224, (S)—N^4-(tert-butoxy)-N^1—((S)-3-methyl-1-((naphthalen-1-ylmethyl)amino)-1-oxobutan-2-yl)-2-(3-phenylpropanamido)succinamide] | 0.0043 µM | 53 | 0.228 µM | >100 µM |
| C[C@H](NC(=O)[C@H](CC(=O)NOC(C)(C)C)NC(=O)CCc1ccccc1)C(=O)NCc1ccnc2ccccc12 [DPLG-2068, (S)—N^4-(tert-butoxy)-N^1—((S)-1-oxo-1-((quinolin-4-ylmethyl)amino)propan-2-yl)-2-(3-phenylpropanami-do)succinamide] | 3.06 µM | 9.3 | 28.4 µM | >100 µM |
| CC(C)(C)NC(=O)C[C@H](NC(=O)CCc1ccccc1)C(=O)N[C@@H](Cc1ccc(F)cc1)C(=O)NCc1cccc(-c2ccccc2)c1 [DPLG-21050] | 0.026 µM | >3846 | > 100 µM | – |
| CC(C)(C)NC(=O)C[C@H](NC(=O)CCc1ccccc1)C(=O)N[C@@H](Cc1ccncc1)C(=O)NCc1cccc2ccccc12 [DPLG-21033] | 0.0053 µM | 83 | 0.438 µM | – |
| Cc1ccc(S(=O)(=O)N[C@@H](CCC(=O)NC(C)(C)C)C(=O)N[C@@H](C)C(=O)NCc2cccc(C(F)(F)F)c2)cc1 [DPLG-3014] | 0.025 µM | 17 | 0.42 µM | 0.96 µM |
| C[C@H](NC(=O)[C@H](CCC(=O)NC(C)(C)C)NC(=O)CCc1ccccc1)C(=O)NCCc1cccc2ccccc12 [DPLG-3012] | 0.93 µM | 10.4 | 9.65 µM | 4.16 µM |
| COC[C@H](NC(=O)[C@H](CC(=O)NC1COC1)NS(C)(=O)=O)C(=O)NCc1cccc2ccccc12 [DPLG-2219, (S)—N^1—((S)-3-methoxy-1-((naphthalen-1-ylmethyl)amino)-1-oxopropan-2-yl)-2-(methylsulfonamido)-N^4-(oxetan-3-yl)succinamide] | 4.73 µM | >21 | > 100 µM | >100 µM |
| COC[C@H](NC(=O)[C@H](CC(=O)NOC(C)(C)C)NC(=O)CCCc1ccccc1)C(=O)NCc1cccc2ccccc12 [DPLG-2223, (S) N^4-(tert-butoxy)-N^1—((S)-3methoxy-1-((naphthalen-1-ylmethyl)amino)-1-oxopropan-2-yl)-2-(4-phenylbutanamido)succinamide] | 0.0065 µM | 118 | 0.767 µM | 4.47 µM |
